Test results published in patent US10370387B2, “Tricyclic fused thiophene derivatives as JAK inhibitors” (Incyte Corporation, priority 2012, dated 2019).
Where a name gives a salt, the structure may show the parent alone.

tested on: human JAK1; experiment: In vitro JAK kinase assay (HTRF, phosphorylation of biotinylated peptide), JAK1; format: biochemical; details: ratio of JAK2 IC50 to JAK1 IC50, 1 mM ATP
Description: Compounds herein were tested for inhibitory activity of JAK targets according to the following in vitro assay described in Park et al., Analytical Biochemistry 1999, 269, 94-104. The catalytic domains of human JAK1 (a.a. 837-1142), JAK2 (a.a. 828-1132) and JAK3 (a.a. 781-1124) were expressed using baculovirus in insect cells and purified. The catalytic activity of JAK1, JAK2 or JAK3 was assayed by measuring the phosphorylation of a biotinylated peptide. The phosphorylated peptide was detected by homogenous time resolved fluorescence (HTRF). IC50s of compounds were measured for each kinase in the 40 μL reactions that contain the enzyme, ATP and 500 nM peptide in 50 mM Tris (pH 7.8) buffer with 100 mM NaCl, 5 mM DTT, and 0.1 mg/mL (0.01%) BSA. For the 1 mM IC50 measurements, ATP concentration in the reactions was 1 mM. Reactions were carried out at room temperature for 1 hour and then stopped with 20 μL 45 mM EDTA, 300 nM SA-APC, 6 nM Eu-Py20 in assay buffer (Perkin Elmer, Boston, Mass.). Binding to the Europium labeled antibody took place for 40 minutes and HTRF signal was measured on a PHERA star plate reader (BMG, Cary, N.C.). The Example compounds were each tested in the Example A assay (see Table 1 for data for the compounds of the examples as tested by the assay of Example A at 1 mM ATP).

Row | Compound | JAK2/JAK1
1 | Cc1nc2cnc3ccsc3c2n1[C@@H]1CC[C@@H](CC#N)[C@@H](O)C1 (mixture of isomers) [Example 34, Mixture of [(1R, 2R, 4S)-2-hydroxy-4-(2-methyl-1H-imidazo[4,5-d]thieno[3,2-b]pyridin-1-yl)cyclohexyl]acetonitrile trifluoroacetate and [(1S, 2S, 4R)-2-hydroxy-4-(2-methyl-1H-imidazo[4,5-d]thieno[3,2-b]pyridin-1-yl)cyclohexyl]acetonitrile trifluoroacetate] | >10
2 | CCc1nc2cnc3ccsc3c2n1[C@@H]1CC[C@@H](CC#N)[C@@H](O)C1 (mixture of isomers) [Example 35] | >10
3 | C[C@@H](O)c1nc2cnc3ccsc3c2n1C1CCC(O)(CC#N)CC1 (single isomer, unassigned) [24 (first peak)] | >10
4 | C[C@@H](O)c1nc2cnc3ccsc3c2n1C1CCC(O)(CC#N)CC1 (single isomer, unassigned) [24 (second peak)] | >10
5 | C[C@@H](O)c1nc2cnc3ccsc3c2n1C1CCC(NCCC#N)CC1 (single isomer, unassigned) [30 (first peak)] | >2
6 | C[C@@H](O)c1nc2cnc3ccsc3c2n1C1CCC(NCCC#N)CC1 (single isomer, unassigned) [30 (second peak)] | >10
7 | N#CCC1CCC(CO)(n2cnc3cnc4ccsc4c32)CC1 (single isomer, unassigned) [72 (second peak), [4-(Hydroxymethyl)-4-(1H-imidazo[4,5-d]thieno[3,2-b]pyridin-1-yl)cyclohexyl]acetonitrile] | >5
8 | C[C@@H](O)c1nc2cnc3ccsc3c2n1C1CCNCC1F (stereo partly drawn) [9 (2nd peak), (1R)-1-[1-(3-Fluoropiperidin-4-yl)-1H-imidazo[4,5-d]thieno[3,2-b]pyridin-2-yl]ethanol] | >10
9 | C[C@@H](O)c1nc2cnc3ccsc3c2n1[C@H]1CCCOC1 [Example 1, (1R)-1-{1-[(3S)-Tetrahydro-2H-pyran-3-yl]-1H-imidazo[4,5-d]thieno[3,2-b]pyridin-2-yl}ethanol] | >3
10 | C[C@@H](O)c1nc2cnc3ccsc3c2n1[C@H]1CC[C@H](CC#N)CC1 [Example 2, (trans-4-{2-[(1R)-1-Hydroxyethyl]-1H-imidazo[4,5-d]thieno[3,2-b]pyridin-1-yl}cyclohexyl)acetonitrile] | >10
11 | C[C@@H](O)c1nc2cnc3ccsc3c2n1[C@H]1CC[C@H](O)CC1 [Example 3, trans-4-{2-[(1R)-1-Hydroxyethyl]-1H-imidazo[4,5-d]thieno[3,2-b]pyridin-1-yl}cyclohexanol] | >10
12 | C[C@@H](O)c1nc2cnc3ccsc3c2n1[C@H]1CC[C@H](NCC(F)(F)F)CC1 [Example 4, (1R)-1-(1-{trans-4-[(2,2,2-Trifluoroethyl)amino]cyclohexyl}-1H-imidazo[4,5-d]thieno[3,2-b]pyridin-2-yl)ethanol] | >10
13 | C[C@@H](O)c1nc2cnc3ccsc3c2n1[C@H]1CC[C@H](CCS(C)(=O)=O)CC1 [Example 5, (1R)-1-(1-{trans-4-[2-(Methylsulfonyl)ethyl]cyclohexyl}-1H-imidazo[4,5-d]thieno[3,2-b]pyridin-2-yl)ethanol] | >10
14 | C[C@@H](O)c1nc2cnc3ccsc3c2n1[C@H]1CC[C@@H](n2cncn2)CC1 [Example 6, (1R)-1-{1-[cis-4-(1H-1,2,4-Triazol-1-yl)cyclohexyl]-1H-imidazo[4,5-d]thieno[3,2-b]pyridin-2-yl}ethanol] | >6
15 | C[C@@H](O)c1nc2cnc3ccsc3c2n1[C@H]1CC[C@@H](C#N)CC1 [Example 7, cis-4-{2-[(1R)-1-Hydroxyethyl]-1H-imidazo[4,5-d]thieno[3,2-b]pyridin-1-yl}cyclohexanecarbonitrile] | >10
16 | C[C@@H](O)c1nc2cnc3ccsc3c2n1[C@H]1CC[C@H](CCC#N)CC1 [Example 8, 3-(trans-4-{2-[(1R)-1-Hydroxyethyl]-1H-imidazo[4,5-d]thieno[3,2-b]pyridin-1-yl}cyclohexyl)propanenitrile] | >10
17 | C[C@@H](O)c1nc2cnc3ccsc3c2n1[C@H]1CC[C@H](CC#N)OC1 [Example 20, ((2R,5S)-5-{2-[(1R)-1-Hydroxyethyl]-1H-imidazo[4,5-d]thieno[3,2-b]pyridin-1-yl}tetrahydro-2H-pyran-2-yl)acetonitrile] | >10
18 | C[C@@H](O)c1nc2cnc3ccsc3c2n1[C@H]1CC[C@@H](CC#N)OC1 [Example 21, ((2S,5S)-5-{2-[(1R)-1-Hydroxyethyl]-1H-imidazo[4,5-d]thieno[3,2-b]pyridin-1-yl}tetrahydro-2H-pyran-2-yl)acetonitrile] | >10

Second part, the molecule after the results:

Row | JAK2/JAK1 | Compound
19 | >10 | C[C@@H](O)c1nc2cnc3ccsc3c2n1[C@H]1CC[C@H](CC#N)CC1.Cl [Example 10, (trans-4-{2-[(1R)-1-Hydroxyethyl]-1H-imidazo[4,5-d]thieno[3,2-b]pyridin-1-yl}cyclohexyl)acetonitrile HCl salt]
20 | >10 | C[C@@H](O)c1nc2cnc3ccsc3c2n1[C@H]1CC[C@H](CO)CC1 [Example 11, (1R)-1-{1-[trans-4-(Hydroxymethyl)cyclohexyl]-1H-imidazo[4,5-d]thieno[3,2-b]pyridin-2-yl}ethanol]
21 | >10 | C[C@@H](O)c1nc2cnc3ccsc3c2n1[C@H]1CC[C@H](CF)CC1 [Example 12, (1R)-1-{1-[trans-4-(Fluoromethyl)cyclohexyl]-1H-imidazo[4,5-d]thieno[3,2-b]pyridin-2-yl}ethanol]
22 | >10 | C[C@@H](O)c1nc2cnc3ccsc3c2n1C1CCCCC1 [Example 13, (1R)-1-(1-Cyclohexyl-1H-imidazo[4,5-d]thieno[3,2-b]pyridin-2-yl)ethanol]
23 | >5 | CNS(=O)(=O)C[C@H]1CC[C@H](n2c([C@@H](C)O)nc3cnc4ccsc4c32)CC1 [Example 14, 1-(trans-4-{2-[(1R)-1-hydroxyethyl]-1H-imidazo[4,5-d]thieno[3,2-b]pyridin-1-yl}cyclohexyl)-N-methylmethanesulfonamide]
24 | >9 | C[C@@H](O)c1nc2cnc3ccsc3c2n1C1CCN(CC(F)(F)F)CC1 [Example 15, (1R)-1-{1-[1-(2,2,2-Trifluoroethyl)piperidin-4-yl]-1H-imidazo[4,5-d]thieno[3,2-b]pyridin-2-yl}ethanol]
25 | >10 | C[C@@H](O)c1nc2cnc3ccsc3c2n1C1CCN(CCC#N)CC1 [Example 16, 3-(4-{2-[(1R)-1-Hydroxyethyl]-1H-imidazo[4,5-d]thieno[3,2-b]pyridin-1-yl}piperidin-1-yl)propanenitrile]
26 | >10 | N#CC[C@H]1CC[C@H](n2c(CO)nc3cnc4ccsc4c32)CC1 [Example 17, {trans-4-[2-(Hydroxymethyl)-1H-imidazo[4,5-d]thieno[3,2-b]pyridin-1-yl]cyclohexyl}acetonitrile]
27 | >10 | CS(=O)(=O)NCc1nc2cnc3ccsc3c2n1[C@H]1CC[C@H](CC#N)CC1 [Example 18, N-({1-[trans-4-(Cyanomethyl)cyclohexyl]-1H-imidazo[4,5-d]thieno[3,2-b]pyridin-2-yl}methyl)methanesulfonamide]
28 | >10 | C[C@@H](O)c1nc2cnc3ccsc3c2n1[C@H]1CCC(CO)OC1 (stereo partly drawn) [Example 19, (1R)-1-{1-[(3S)-6-(Hydroxymethyl)tetrahydro-2H-pyran-3-yl]-1H-imidazo[4,5-d]thieno[3,2-b]pyridin-2-yl}ethanol]
29 | >4 | CS(=O)(=O)NCc1nc2cnc3ccsc3c2n1[C@H]1CC2CCC1C2 (stereo partly drawn) [Example 22, N-((1-((2S)-Bicyclo[2.2.1]heptan-2-yl)-1H-imidazo[4,5-d]thieno[3,2-b]pyridin-2-yl)methyl)methanesulfonamide]
30 | >10 | C[C@@H](O)c1cc2cnc3ccsc3c2n1[C@H]1CC[C@H](CC#N)CC1 [Example 23, (trans-4-{7-[(1R)-1-Hydroxyethyl]-8H-pyrrolo[2,3-d]thieno[3,2-b]pyridin-8-yl}cyclohexyl)acetonitrile]
31 | >6 | N#CC[C@H]1CC[C@H](n2/c(=N/C#N)[nH]c3cnc4ccsc4c32)CC1.O=C(O)C(F)(F)F [Example 25, {(2E)-1-[trans-4-(Cyanomethyl)cyclohexyl]-1,3-dihydro-2H-imidazo[4,5-d]thieno[3,2-b]pyridin-2-ylidene}cyanamide trifluoroacetate]
32 | >10 | N#CC[C@H]1CC[C@H](n2c(C3CC3)nc3cnc4ccsc4c32)CC1 [Example 26, [trans-4-(2-Cyclopropyl-1H-imidazo[4,5-d]thieno[3,2-b]pyridin-1-yl)cyclohexyl]acetonitrile]
33 | >10 | CC(C)c1nc2cnc3ccsc3c2n1[C@H]1CC[C@H](CC#N)CC1 [Example 27, [trans-4-(2-Isopropyl-1H-imidazo[4,5-d]thieno[3,2-b]pyridin-1-yl)cyclohexyl]acetonitrile]
34 | >7 | N#CC[C@H]1CC[C@H](n2c(C3CNC3)nc3cnc4ccsc4c32)CC1 [Example 28, [trans-4-(2-Azetidin-3-yl-1H-imidazo[4,5-d]thieno[3,2-b]pyridin-1-yl)cyclohexyl]acetonitrile]
